Results taken from the supplement of paper PMC13380429.

What was measured:
Settings in all cases: 72 h
Caco-2 [1] = test: cell viability relative to DMSO; higher = less toxic
Calu-3 [2] = test: as above
HepG2 [3] = test: as above
U2OS [4] = test: as above
Vero E6 [5] = test: as above
Caco-2 [6] = test: relative viability EC50 (midpoint between 100% and the lowest measured viability); higher = less toxic
Calu-3 [7] = test: as above
HepG2 [8] = test: as above
U2OS [9] = test: as above
Vero E6 [10] = test: as above
Caco-2 [11] = test: drug sensitivity score (DSS) for viability; higher = more toxic; extreme values may be limits of the assay
Calu-3 [12] = test: as above
HepG2 [13] = test: as above
U2OS [14] = test: as above
Vero E6 [15] = test: as above

Row | SMILES | cell viability (Caco-2 [1]; 1 nM) | cell viability (Caco-2 [1]; 10 nM) | cell viability (Caco-2 [1]; 100 nM) | cell viability (Caco-2 [1]; 1000 nM) | cell viability (Caco-2 [1]; 10000 nM) | cell viability (Calu-3 [2]; 1 nM) | cell viability (Calu-3 [2]; 10 nM) | cell viability (Calu-3 [2]; 100 nM) | cell viability (Calu-3 [2]; 1000 nM) | cell viability (Calu-3 [2]; 10000 nM) | cell viability (HepG2 [3]; 1 nM) | cell viability (HepG2 [3]; 10 nM) | cell viability (HepG2 [3]; 100 nM) | cell viability (HepG2 [3]; 1000 nM) | cell viability (HepG2 [3]; 10000 nM) | cell viability (U2OS [4]; 1 nM) | cell viability (U2OS [4]; 10 nM) | cell viability (U2OS [4]; 100 nM) | cell viability (U2OS [4]; 1000 nM) | cell viability (U2OS [4]; 10000 nM) | cell viability (Vero E6 [5]; 1 nM) | cell viability (Vero E6 [5]; 10 nM) | cell viability (Vero E6 [5]; 100 nM) | cell viability (Vero E6 [5]; 1000 nM) | cell viability (Vero E6 [5]; 10000 nM) | relative viability EC50 (Caco-2 [6]) | relative viability EC50 (Calu-3 [7]) | relative viability EC50 (HepG2 [8]) | relative viability EC50 (U2OS [9]) | relative viability EC50 (Vero E6 [10]) | drug sensitivity score (Caco-2 [11]) | drug sensitivity score (Calu-3 [12]) | drug sensitivity score (HepG2 [13]) | drug sensitivity score (U2OS [14]) | drug sensitivity score (Vero E6 [15])
1 | CC1(CN)Cc2ccccc2C1 [ORG-9768] | 93% | 87.1% | 101% | 93.9% | 110% | 109% | 105% | 95.4% | 102% | 96.9% | 98% | 109% | 96.3% | 112% | 102% | 99.5% | 98% | 101% | 102% | 102% | 91.2% | 96.8% | 94% | 98.5% | 109% | > 10 µM | > 10 µM | > 10 µM | > 10 µM | > 10 µM | 0 | 0 | 0 | 0 | 0
2 | CN1CC[C@@H]2CN3CCc4cccc(c43)[C@@H]2C1 [SDZ-SER-082] | 86.8% | 98.7% | 93.4% | 103% | 100% | 95.7% | 102% | 114% | 94.9% | 100% | 106% | 103% | 104% | 95.8% | 110% | 98.1% | 97.8% | 98.8% | 100% | 95.2% | 95.1% | 92.7% | 95.6% | 92.5% | 103% | > 10 µM | > 10 µM | > 10 µM | > 10 µM | > 10 µM | 0 | 0 | 0 | 0 | 0
3 | CC1(C)CC(=O)c2c(C(F)(F)F)nn(-c3ccc(C(N)=O)c(N[C@H]4CC[C@H](O)CC4)c3)c2C1 [SNX-2112] | 95.2% | 102% | 59.3% | 34.4% | 32.7% | 99.9% | 103% | 44.6% | 35.7% | 35.1% | 108% | 96.3% | 3.7% | 0.4% | 1.1% | 100% | 102% | 27.1% | 2.7% | 1.6% | 95.3% | 101% | 99.8% | 44.9% | 26.9% | 0.0844 µM | 0.0505 µM | 0.0313 µM | 0.0659 µM | 0.639 µM | 17.3 | 18.6 | 30.4 | 26.1 | 10.5
4 | Cc1[nH]c(/C=C2\C(=O)Nc3cc(-c4ccccc4)ccc32)c(C)c1CCC(=O)O [SU16f] | 98.7% | 100% | 97.5% | 91.9% | 83.3% | 99.8% | 108% | 107% | 103% | 104% | 92.3% | 95.1% | 87.6% | 97.9% | 76.8% | 104% | 97% | 102% | 95.5% | 89.1% | 92.9% | 93.3% | 93.8% | 92.8% | 87% | > 10 µM | > 10 µM | > 10 µM | > 10 µM | > 10 µM | 0.7 | 0 | 1 | 0.1 | 0
5 | C/C(=N\c1ccccc1N)c1c(C)cc(=O)n(O)c1O [SUN-B-8155] | 102% | 105% | 99.4% | 103% | 96.2% | 110% | 115% | 91.8% | 104% | 110% | 101% | 104% | 102% | 99.7% | 77.3% | 97.3% | 104% | 98.9% | 99.7% | 96.3% | 101% | 104% | 101% | 98.6% | 104% | > 10 µM | > 10 µM | > 10 µM | > 10 µM | > 10 µM | 0 | 0 | 0.8 | 0 | 0
6 | C[C@H](C[C@H](N)C(=O)O)C(=O)O [SYM-2081] | 103% | 96% | 105% | 97.5% | 98.4% | 102% | 88.4% | 96.6% | 95.3% | 102% | 104% | 88.4% | 91.9% | 96.6% | 93.8% | 100% | 97.5% | 100% | 97.7% | 106% | 101% | 102% | 95.1% | 104% | 93.4% | > 10 µM | > 10 µM | > 10 µM | > 10 µM | > 10 µM | 0 | 0 | 0 | 0 | 0
7 | Cc1cc(C(=O)Nc2cc(Oc3ccc4nc(NC(=O)C5CC5)cn4n3)ccc2C)n(C)n1 [TAK-593] | 98.4% | 99% | 93.2% | 97.6% | 80.5% | 94.6% | 102% | 97.6% | 101% | 98.3% | 99.1% | 95.5% | 93.1% | 104% | 75.4% | 101% | 103% | 98.4% | 95.1% | 94.1% | 99.6% | 101% | 96.3% | 95.4% | 91.1% | > 10 µM | > 10 µM | > 10 µM | > 10 µM | > 10 µM | 0.9 | 0 | 0.7 | 0 | 0
8 | CN(C)CCNc1nc2cc(O)ccc2c2c1C(=O)c1ccccc1-2 [TAS-103] | 102% | 104% | 102% | 56.8% | 22.3% | 109% | 93.4% | 89.1% | 50.4% | 15.4% | 100% | 95.9% | 66.3% | 15.5% | 0.3% | 99.4% | 95.3% | 95.3% | 49.5% | 0% | 101% | 106% | 84.8% | 40% | 0.1% | 0.915 µM | 0.67 µM | 0.19 µM | 0.975 µM | 0.634 µM | 9.6 | 11.1 | 19.7 | 11.5 | 13.4
9 | O=C(Nc1ccc(F)cc1)N1CCc2ccccc2[C@@H]1c1ccc(C(F)(F)F)cc1 [TC-I-2000] | 102% | 103% | 95.9% | 98.7% | 93.3% | 107% | 98.3% | 94.6% | 99% | 97.4% | 93.6% | 109% | 99.5% | 101% | 94.2% | 98.7% | 99.2% | 102% | 99.8% | 102% | 108% | 101% | 102% | 103% | 89.7% | > 10 µM | > 10 µM | > 10 µM | > 10 µM | > 10 µM | 0 | 0 | 0 | 0 | 0
10 | COc1cccc(-n2nc(C(=O)O)cc2-c2ccc(C3CCCCC3)c(Cl)c2)c1 [TC-LPA5-4] | 87.4% | 93.6% | 96.4% | 97.7% | 101% | 97.4% | 94.5% | 101% | 95.8% | 108% | 111% | 92.6% | 101% | 104% | 102% | 100% | 96.4% | 97.8% | 94.9% | 94.9% | 102% | 104% | 103% | 99.6% | 96% | > 10 µM | > 10 µM | > 10 µM | > 10 µM | > 10 µM | 0 | 0 | 0 | 0 | 0
11 | O=C1c2ccccc2C(Cc2ccncc2)(Cc2ccncc2)c2ccccc21 [XE-991] | 100% | 94.1% | 97.5% | 93.8% | 89.2% | 108% | 87.7% | 108% | 91.2% | 99.8% | 97.8% | 97.6% | 97.6% | 96.3% | 89.1% | 103% | 98.8% | 100% | 96.5% | 100% | 94.5% | 101% | 98.8% | 93.3% | 91.1% | > 10 µM | > 10 µM | > 10 µM | > 10 µM | > 10 µM | 0 | 0 | 0 | 0 | 0
12 | Nc1ncnc2c1ncn2[C@@H]1O[C@H](COP(=O)(O)O)[C@@H](O)[C@H]1O [adenosine-phosphate] | 114% | 98% | 86.4% | 113% | 92.8% | 89.1% | 93.5% | 93.6% | 101% | 89.6% | 90.2% | 94.5% | 101% | 85.6% | 96% | 97.9% | 102% | 94.6% | 104% | 107% | 101% | 108% | 110% | 91% | 102% | > 10 µM | > 10 µM | > 10 µM | > 10 µM | > 10 µM | 0 | 0 | 0 | 0 | 0
13 | C=CCSCC1Nc2cc(Cl)c(S(N)(=O)=O)cc2S(=O)(=O)N1 (stereo not given) [althiazide] | 90.1% | 96.8% | 93% | 90.9% | 89.8% | 111% | 94.8% | 112% | 112% | 101% | 109% | 116% | 94.2% | 102% | 107% | 96.1% | 95.5% | 100% | 96.9% | 100% | 97.8% | 97.2% | 98.8% | 104% | 112% | > 10 µM | > 10 µM | > 10 µM | > 10 µM | > 10 µM | 0 | 0 | 0 | 0 | 0
14 | C[C@H]1CN(C[C@H](Cc2ccccc2)C(=O)NCC(=O)O)CC[C@@]1(C)c1cccc(O)c1 [alvimopan] | 102% | 91.8% | 93.6% | 107% | 106% | 107% | 91.9% | 104% | 111% | 104% | 96.8% | 103% | 110% | 99.3% | 104% | 100% | 97.3% | 101% | 104% | 102% | 90.4% | 96.2% | 94.8% | 95.8% | 104% | > 10 µM | > 10 µM | > 10 µM | > 10 µM | > 10 µM | 0 | 0 | 0 | 0 | 0
